Measured values: the supplement of paper PMC10307832

Experiments:
Experiment in all cases: relative viability (nuclei count vs DMSO), 5 days (fraction); higher = more cells survive
[1] = compound: CS(=O)(=O)N1CCN(Cc2cc3nc(-c4cccc5[nH]ncc45)nc(N4CCOCC4)c3s2)CC1 [Pictilisib] + CC(=O)c1c(C)c2cnc(Nc3ccc(N4CCNCC4)cn3)nc2n(C2CCCC2)c1=O [Palbociclib] (partner 0.5 µM)
Procedure, shortened: (§1)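 Lung cancer cell lines, seeded in 1536-well plates, were treated the following day by pin tool with a single drug or with five library-drug doses (not always all listed) in √10 steps on top of a fixed anchor-drug dose. Cells were fixed and nuclei stained in one step after 5 days, and nuclei were counted. Relative viability is the nuclei count for treated wells divided by that for vehicle wells, reported as medians of duplicate plates.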

[2] = compound: CS(=O)(=O)N1CCN(Cc2cc3nc(-c4cccc5[nH]ncc45)nc(N4CCOCC4)c3s2)CC1 [Pictilisib] + C[C@]1(O)C[C@@H](c2nc(-c3ccc4ccc(-c5ccccc5)nc4c3)c3c(N)nccn32)C1 [Linsitinib] (partner 1 µM)
Procedure, shortened: as §1

[3] = compound: CS(=O)(=O)N1CCN(Cc2cc3nc(-c4cccc5[nH]ncc45)nc(N4CCOCC4)c3s2)CC1 [Pictilisib] + Cc1nc(NC(=O)N2CCC[C@H]2C(N)=O)sc1-c1ccnc(C(C)(C)C(F)(F)F)c1 [Alpelisib] (partner 2 µM)
Procedure, shortened: as §1

[4] = compound: NC1(c2ccc(-c3nc4ccn5c(=O)[nH]nc5c4cc3-c3ccccc3)cc2)CCC1 [MK-2206] + Nc1nc2[nH]cc(CCc3ccc(C(=O)N[C@@H](CCC(=O)O)C(=O)O)cc3)c2c(=O)[nH]1 [Pemetrexed] (partner 0.2 µM)
Procedure, shortened: as §1

[5] = compound: NC1(c2ccc(-c3nc4ccn5c(=O)[nH]nc5c4cc3-c3ccccc3)cc2)CCC1 [MK-2206] + O=C(CCCCCCC(=O)Nc1ccccc1)NO [Vorinostat] (partner 1 µM)
Procedure, shortened: as §1

Cell Line	relative viability ([1]; first compound 0.02 µM)	relative viability ([1]; first compound 0.06325 µM)	relative viability ([1]; first compound 0.6325 µM)	relative viability ([1]; first compound 2 µM)	relative viability ([2]; first compound 0.02 µM)	relative viability ([2]; first compound 0.06325 µM)	relative viability ([2]; first compound 0.6325 µM)	relative viability ([2]; first compound 2 µM)	relative viability ([3]; first compound 0.02 µM)	relative viability ([3]; first compound 0.06325 µM)	relative viability ([3]; first compound 0.6325 µM)	relative viability ([3]; first compound 2 µM)	relative viability ([4]; first compound 0.01 µM)	relative viability ([4]; first compound 0.03162 µM)	relative viability ([4]; first compound 0.3162 µM)	relative viability ([4]; first compound 1 µM)	relative viability ([5]; first compound 0.01 µM)	relative viability ([5]; first compound 0.03162 µM)	relative viability ([5]; first compound 0.3162 µM)	relative viability ([5]; first compound 1 µM)
NCI-H1793	0.25	0.234	0.199	0.183	0.829	0.819	0.554	0.336	0.729	0.516	0.566	0.307	0.908	0.863	0.844	0.783	0.818	0.773	0.636	0.478
BEN	0.442	0.488	0.443	0.439	0.948	0.891	0.947	0.683	0.813	1.08	1.03	0.704	0.736	0.767	0.679	0.697	0.54	0.582	0.514	0.555
NCI-H647	0.365	0.419	0.254	0.144	1.16	1.15	1.02	0.439	1.09	1.26	0.894	0.467	0.201	0.165	0.144	0.134	0.569	0.429	0.567	0.654
PC-14	0.488	0.564	0.507	0.334	0.934	0.937	0.91	0.588	0.924	0.943	1.02	0.766	0.129	0.14	0.164	0.144	0.73	0.79	0.55	0.669
HCC-78	0.566	0.481	0.403	0.361	0.508	0.413	0.318	0.226	0.332	0.279	0.289	0.19	0.934	0.924	0.909	0.934	0.439	0.504	0.408	0.398
NCI-H1666	0.606	0.713	0.668	0.607	0.744	0.696	0.608	0.431	0.982	0.989	0.748	0.428	0.793	0.774	1.03	0.787	1.03	1.07	1.04	0.916
COR-L 105	0.429	0.477	0.423	0.399	0.882	0.933	0.819	0.486	1.08	0.957	0.861	0.692	1.22	1.08	1.29	1.28	0.822	0.676	0.769	0.796
LU99A	0.426	0.288	0.316	0.177	0.576	0.468	0.326	0.244	0.461	0.61	0.413	0.287	0.174	0.152	0.186	0.203	0.456	0.529	0.473	0.49
201T	0.332	0.377	0.332	0.284	0.989	1.05	0.902	0.82	1.01	1.02	0.979	0.773	0.318	0.313	0.342	0.333	0.963	1.06	0.988	1.09
HCC-15	0.682	0.704	0.678	0.475	0.852	0.928	0.87	0.762	0.829	0.926	0.829	0.714	0.254	0.198	0.218	0.204	0.821	0.828	0.78	0.854
